# Assay results reported in US20260274955A1, “ANTIBODIES FOR TARGETING CD28 AND USES THEREOF” (Janux Therapeutics, Inc., priority 2023, published 2026).
# Read-outs that look alike come from different tables or passages of the source.
# How the values were obtained:
# [1] = molecular target: anti-CD28 scFv (disulfide) (SEQ ID NO: 67); assay: Competition ELISA: peptide inhibition of anti-CD28 scFv (disulfide) binding to plate-bound CD28
# Experimental: […] After a short pre-incubation period, the mixture of titrated peptide with fixed Ab-1 were added to the CD28 antigen coated plates. After a short incubation on the plates, bound Ab-1 was detected with a standard horse radish peroxidase conjugated secondary antibody.
# (§1) The anti-CD28 Fab was fixed at a concentration of 1 nM and incubated with titrated 0-100 μM peptides.
# [2] = molecular target: anti-CD28 Fab (SEQ ID NOs: 202, 203); assay: Competition ELISA: peptide inhibition of anti-CD28 Fab binding to plate-bound CD28 (also alanine scanning peptides); conditions: anti-CD28 Fab fixed at 1 nM
# Experimental: Ab-1 fixed at 1 nanomolar (nM) concentration was pre-incubated with 0-100 micromolar (μM) titrated peptides. After a short pre-incubation period, the mixture of titrated peptide with fixed Ab-1 were added to the CD28 antigen coated plates. After a short incubation on the plates, bound Ab-1 was detected with a standard horse radish peroxidase conjugated secondary antibody.
# as §1
# [3] = molecular target: anti-CD28 scFv (SEQ ID NO: 35); assay: Kinetic binding by bio-layer interferometry (Octet RED96): anti-CD28 scFv to peptides; parameters: species or system human; conditions: for Kd: CD28 scFv titrated 100-12.5 nM, 200 nM peptide load
# Experimental: (§2) Briefly, streptavidin biosensors were loaded with biotinylated peptides and baselined in buffer. […] After a short association period, sensors were transferred into buffer and the dissociation of bound anti-CD28 scFv was measured. The timing and steps of the experiment are shown in the accompanying table. Association and dissociation signals were recorded in real time and analyzed using a 1:1 binding model within the instrument software. Analysis using a 1:1 binding model enabled the calculation of the on and off rate constants as well as affinity, KD.
# as §2, with “KD. FIGS. 48A-48F illustrate kinetic binding of anti-CD28 scFv binding to peptides as measured by Octet. FIGS. 48G-48U illustrate kinetic binding of peptides to the anti-CD28 scFv as measured by Octet.” for “KD.”
# [4] = system: anti-CD28 Fab (SEQ ID NOs: 202, 203); assay: Kinetic binding via BLI: peptides to anti-CD28 Fab; conditions: for Off rate t½: Table 18, anti-CD28 Fab; for Kd / t½: binding to anti-CD28 Fab
# Experimental: Kinetic binding of the peptides of Table 1 to Ab-1 was evaluated using biolayer interferometry (BLI). […] Ab-1 was titrated in solution and associated onto the peptide loaded sensor. After a short association period, sensors were transferred into buffer and the dissociation of bound Ab-1 was measured. Association and dissociation signals were recorded in real time and analyzed using a 1:1 binding model within the instrument software. Analysis using a 1:1 binding model enabled the calculation of the on and off rate constants as well as affinity, KD.
# Kinetic binding of the peptides to anti-CD28 Fab (SEQ ID NOs: 202, 203) was evaluated using BLI as described above.
# [5] = read-out: anti-CD28 scFv (disulfide) Competition ELISA IC50, anti-CD28 scFv fixed at 0.3 nM, titrated 0-100 μM peptides, plate-bound CD28 antigen
# [6] = titrated 0-100 μM peptides, plate-bound CD28 antigen, read-out: anti-CD28 Fab Competition ELISA IC50
# [7] = Table 18, 0-100 μM peptide, read-out: Competition ELISA IC50
# [8] = Table 17, 0-100 μM peptide, read-out: Competition ELISA IC50
# [9] = BLI Octet RED96, biotinylated peptide loaded on streptavidin sensor, anti-CD28 scFv 100-12.5 nM, 1:1 binding model
# [10] = Table 19, anti-CD28 scFv (disulfide) fixed at 0.3 nM, 0-100 μM peptide, read-out: Competition ELISA IC50
# Chain of anti-CD28 scFv (SEQ ID NO: 35) (as listed by the source): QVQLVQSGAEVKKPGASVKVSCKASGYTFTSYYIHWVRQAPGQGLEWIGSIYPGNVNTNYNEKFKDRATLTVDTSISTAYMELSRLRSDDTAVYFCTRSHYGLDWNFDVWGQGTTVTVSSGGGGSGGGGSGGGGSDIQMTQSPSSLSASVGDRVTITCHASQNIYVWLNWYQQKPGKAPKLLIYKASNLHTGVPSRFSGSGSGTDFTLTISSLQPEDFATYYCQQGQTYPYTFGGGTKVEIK
# Chain of anti-CD28 scFv (disulfide) (SEQ ID NO: 67) (as listed by the source): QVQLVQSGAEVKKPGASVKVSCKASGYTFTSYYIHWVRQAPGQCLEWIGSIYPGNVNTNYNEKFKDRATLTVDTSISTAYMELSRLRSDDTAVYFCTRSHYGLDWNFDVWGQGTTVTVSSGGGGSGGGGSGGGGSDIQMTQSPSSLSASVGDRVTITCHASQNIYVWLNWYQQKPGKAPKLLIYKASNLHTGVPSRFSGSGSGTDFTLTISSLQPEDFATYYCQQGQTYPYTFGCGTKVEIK
# Chain of anti-CD28 Fab (SEQ ID NOs: 202, 203) (as listed by the source): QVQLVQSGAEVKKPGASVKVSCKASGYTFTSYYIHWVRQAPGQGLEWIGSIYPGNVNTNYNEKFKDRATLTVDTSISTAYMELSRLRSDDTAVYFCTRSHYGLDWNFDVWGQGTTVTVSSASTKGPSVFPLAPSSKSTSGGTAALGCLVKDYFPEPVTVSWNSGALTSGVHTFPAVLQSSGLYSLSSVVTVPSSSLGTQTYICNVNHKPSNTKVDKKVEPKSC
# Chain of anti-CD28 Fab (SEQ ID NOs: 202, 203) (as listed by the source): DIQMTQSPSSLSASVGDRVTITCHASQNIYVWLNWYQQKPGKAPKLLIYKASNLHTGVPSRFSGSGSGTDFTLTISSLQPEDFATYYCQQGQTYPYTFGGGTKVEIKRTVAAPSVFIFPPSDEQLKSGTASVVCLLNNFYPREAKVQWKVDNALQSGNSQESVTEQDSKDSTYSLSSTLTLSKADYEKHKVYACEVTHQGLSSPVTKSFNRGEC
sequence,measurement,setting,value
"ACAGHAWQYINKCL [Peptide-59, alanine scanning peptide of Peptide-39]",IC50,[1]; [5],> 100 µM
same,IC50,[2]; [6],> 100 µM
GYCHYWGDMVMWCG [Peptide-118],Kd,"[3]; Table 28, 1:1 model",0.017 µM
same,kdis,"[3]; Table 28, CD28 scFv, 1:1 model",0.00167 s⁻¹
same,kon,"[3]; Table 28, CD28 scFv, 1:1 model",98700 M⁻¹ s⁻¹
"HCSGHHWLQVWKCF [Peptide-82, optimization library of Peptide-39]",IC50,[2]; [7],> 100 µM
"LCAAGFTYPWPLCL [Peptide-107, optimization library of Peptide-44]",IC50,[2]; [8],> 100 µM
"LCKPGVPYKWPTCL [Peptide-108, optimization library of Peptide-44]",IC50,[2]; [8],> 100 µM
MDWCPIDLWNECFF [Peptide-137],kdis,[3]; [9],0.00369 s⁻¹
same,kon,[3]; [9],51400 M⁻¹ s⁻¹
MDWCPIHLWHVCFN [Peptide-138],kdis,[3]; [9],0.00295 s⁻¹
same,kon,[3]; [9],59100 M⁻¹ s⁻¹
MDWCPIYLWSECFN [Peptide-139],kdis,[3]; [9],0.00153 s⁻¹
same,kon,[3]; [9],29000 M⁻¹ s⁻¹
MDWCPLHMWHECFS [Peptide-141],kdis,[3]; [9],0.00497 s⁻¹
same,kon,[3]; [9],39000 M⁻¹ s⁻¹
MDWCPLYLWNECFN [Peptide-142],kdis,[3]; [9],0.00252 s⁻¹
same,kon,[3]; [9],36700 M⁻¹ s⁻¹
MDWCPRDLWDLCFA [Peptide-143],kdis,[3]; [9],0.00351 s⁻¹
same,kon,[3]; [9],35900 M⁻¹ s⁻¹
MDWCPRDLWHECFA [Peptide-144],kdis,[3]; [9],0.00277 s⁻¹
same,kon,[3]; [9],30000 M⁻¹ s⁻¹
MDWCPRDLWHLCFS [Peptide-145],kdis,[3]; [9],0.00265 s⁻¹
same,kon,[3]; [9],51100 M⁻¹ s⁻¹
MDWCPRDLWSECFF [Peptide-146],kdis,[3]; [9],0.0031 s⁻¹
same,kon,[3]; [9],38800 M⁻¹ s⁻¹
MDWCPRDLWVHCFA [Peptide-1],kdis,[3]; [9],0.00154 s⁻¹
same,kon,[3]; [9],36400 M⁻¹ s⁻¹
MDWCPRDMWDECFA [Peptide-147],kdis,[3]; [9],0.00433 s⁻¹
same,kon,[3]; [9],28400 M⁻¹ s⁻¹
MDWCPRDMWSECFA [Peptide-148],kdis,[3]; [9],0.0032 s⁻¹
same,kon,[3]; [9],16700 M⁻¹ s⁻¹
MDWCPRDMWSVCFS [Peptide-149],kdis,[3]; [9],0.00812 s⁻¹
same,kon,[3]; [9],21700 M⁻¹ s⁻¹
MDWCPRERWVDCFF [Peptide-116],Kd,"[3]; Table 28, 1:1 model",0.377 µM
same,kdis,"[3]; Table 28, CD28 scFv, 1:1 model",0.0123 s⁻¹
same,kon,"[3]; Table 28, CD28 scFv, 1:1 model",32500 M⁻¹ s⁻¹
MDWCPRERWVDCFF [Peptide-156],kdis,[3]; [9],0.0115 s⁻¹
same,kon,[3]; [9],41500 M⁻¹ s⁻¹
MDWCPRFMWDECFN [Peptide-150],kdis,[3]; [9],0.00364 s⁻¹
same,kon,[3]; [9],27100 M⁻¹ s⁻¹
MDWCPRHMWNYCFA [Peptide-151],kdis,[3]; [9],0.00218 s⁻¹
same,kon,[3]; [9],61900 M⁻¹ s⁻¹
MDWCPRSLWHECFA [Peptide-152],kdis,[3]; [9],0.00201 s⁻¹
same,kon,[3]; [9],38900 M⁻¹ s⁻¹
MDWCPRYLWHVCFA [Peptide-153],kdis,[3]; [9],0.00187 s⁻¹
same,kon,[3]; [9],88900 M⁻¹ s⁻¹
MDWCPVHLWSVCFA [Peptide-155],kdis,[3]; [9],0.00443 s⁻¹
same,kon,[3]; [9],92300 M⁻¹ s⁻¹
MHWCPVDLWYLCYN [Peptide-154],kdis,[3]; [9],0.00186 s⁻¹
same,kon,[3]; [9],88200 M⁻¹ s⁻¹
MNWCPKDIWYLCFN [Peptide-140],kdis,[3]; [9],0.00684 s⁻¹
same,kon,[3]; [9],77000 M⁻¹ s⁻¹
"SCAAAASYAWPYCL [Peptide-52, alanine scanning peptide of Peptide-44]",IC50,[1]; [5],> 100 µM
same,IC50,[2]; [6],> 100 µM
"SCAAGASAAWPYCL [Peptide-54, alanine scanning peptide of Peptide-44]",IC50,[1]; [5],> 100 µM
same,IC50,[2]; [6],> 100 µM
"SCAAGASYAAPYCL [Peptide-55, alanine scanning peptide of Peptide-44]",IC50,[1]; [5],> 100 µM
same,IC50,[2]; [6],> 100 µM
"SCAAGASYAWAYCL [Peptide-56, alanine scanning peptide of Peptide-44]",IC50,[1]; [5],> 100 µM
same,IC50,[2]; [6],> 100 µM
"SCAAGASYAWPYCA [Peptide-58, alanine scanning peptide of Peptide-44]",IC50,[1]; [5],> 100 µM
SCAAGASYAWPYCL [Peptide-44],IC50,[1]; [10],> 100 µM
WCWDYKLWVPMTCP [Peptide-37],IC50,[1]; [10],> 100 µM
same,IC50,"[2]; Table 16, 0-100 μM peptide, read-out: Competition ELISA IC50",> 100 µM
"YCAAHAWQYINKCL [Peptide-60, alanine scanning peptide of Peptide-39]",IC50,[1]; [5],> 100 µM
same,IC50,[2]; [6],> 100 µM
"YCAGAAWQYINKCL [Peptide-61, alanine scanning peptide of Peptide-39]",IC50,[1]; [5],> 100 µM
same,IC50,[2]; [6],> 100 µM
"YCAGHAWQAINKCL [Peptide-64, alanine scanning peptide of Peptide-39]",IC50,[1]; [5],> 100 µM
same,IC50,[2]; [6],> 100 µM
"YCAGHAWQYANKCL [Peptide-65, alanine scanning peptide of Peptide-39]",IC50,[1]; [5],> 100 µM
YCAGHAWQYINKCL [Peptide-39],IC50,[1]; [10],> 100 µM
same,Off rate t½,[4],42 s
same,Kd,[4],2.02 µM
same,t½,[4],36 s
YCAGHSPINIGKCL [Peptide-36],IC50,[1]; [10],> 100 µM
"YCEGHAPEYIAKCL [Peptide-73, optimization library of Peptide-39]",Off rate t½,[4],24 s
same,Kd,[4],0.831 µM
same,t½,[4],24 s
"YCEGHLPEYIEKCL [Peptide-72, optimization library of Peptide-39]",Off rate t½,[4],30 s
same,Kd,[4],0.926 µM
same,t½,[4],30 s
"YCEGHLPEYIQKCL [Peptide-86, optimization library of Peptide-39]",Off rate t½,[4],54 s
same,t½,[4],60 s
"YCEGHLPEYIWKCL [Peptide-87, optimization library of Peptide-39]",Off rate t½,[4],54 s
"YCEGHLPEYLAKCL [Peptide-79, optimization library of Peptide-39]",Off rate t½,[4],60 s
same,Kd,[4],0.0447 µM
same,t½,[4],60 s
"YCEGHLPEYREKCL [Peptide-78, optimization library of Peptide-39]",Off rate t½,[4],36 s
same,t½,[4],36 s
"YCEGHLPEYRNKCL [Peptide-84, optimization library of Peptide-39]",Off rate t½,[4],48 s
same,Kd,[4],0.11 µM
same,t½,[4],48 s
"YCWSHSPPFIKKCY [Peptide-83, optimization library of Peptide-39]",IC50,[2]; [7],> 100 µM
